{"source": "paper PMC5342389", "about": "“PIM kinases as therapeutic targets against advanced melanoma” (Oncotarget, 2016)", "key": {"pAKTSer473": {"system": "pAKTSer473", "assay": "Western blot for AZD6482 target inhibition", "assay_type": "cell-based, human", "conditions": "increasing doses, 72 h", "description": "Since PIM kinases and AKT share common downstream effectors, we hypothesized that inhibiting both PIM and PI3K activity would prevent pathway compensation, enhance melanoma cell death compared to each single agent, and maintain low activity of AKT and STAT3.\nSupplementary Figure S5: AZD6482 target inhibition. Increasing doses of the PI3Kβ inhibitor AZD6482 were used to treat melanoma cells for 72 h before lysates were collected and probed for pAKTSer473 and total protein. Hsp90 was used as a loading control. […]\ncombination. To facilitate statistical analysis of synergy effects, we used a grid-like design of constant ratio drug combinations. Viability was calculated relative to DMSO controls in each plate and the mean of three experiments provided. Synergy was calculated for combination experiments using the Bliss formula. […]\nobserved combination effects. […]"}, "[1]": {"system": "collagen-embedded melanoma spheroids", "assay": "LIVE/DEAD viability/cytotoxicity assay on 3D spheroids", "conditions": "SGI-1776 [5 μM] or AZD6482 [10 μM] as single agents or in combination, 72 h"}, "[2]": {"system": "Melanoma cells and normal fibroblasts", "assay": "alamarBlue proliferation assay, adherent cultures, 72 h", "assay_type": "cell-based, human", "conditions": "increasing doses, normalized to DMSO"}, "[3]": {"system": "Melanoma cell lines and normal fibroblasts", "assay": "propidium iodide staining (cell death)", "assay_type": "cell-based", "conditions": "10 μM, 72 h"}, "[4]": {"system": "1205Lu, WM983B, and 451Lu", "assay": "Western blot of adherent (2D) melanoma cells", "assay_type": "cell-based, human", "conditions": "10 μM, 12 h"}, "1205Lu tumors": {"system": "1205Lu tumors", "assay": "Western blot of mouse tumor lysates", "assay_type": "in vivo, mice", "conditions": "tumor lysates 17 days following treatment", "from_the_text": "Error bars represent SEM, n = 10 mice. […] Histone H3 served as loading control.\nWe next determined the expression levels of PIM1, −2 and −3 in two mouse tumors from the in vivo combination experiment shown in Figure 6A. Tumor samples were collected following 3 days of treatment and PIM expression levels were not consistently changed across treatment groups; however, the presence of PLX4720 correlated with higher PIM2 levels (Figure 6B). To understand signaling changes leading to our observed drug response in vivo, western blot analyses were then conducted on tumor lysates isolated 17 days following treatment (Figure 6C).\nFor immunoblots, proteins were extracted as described in [49], and 50 μg of cell extract were resolved on a 10% polyacrylamide-SDS gel before being transferred onto a polyvinylidene membrane (BioRad, Hercules, CA). All primary antibodies were purchased from Cell Signaling Technologies (Beverly, MA), except for the PIM1 antibody, which was purchased from Abcam (Cambridge, MA). All membranes were probed with primary antibodies overnight at 4°C, then incubated with Alexa Fluor-labeled secondary antibodies (IRDye 680LT goat-anti mouse, IRDye 800CW goat-anti rabbit (LI-COR, Lincoln, NE)) for 1h and scanned with the Odyssey system (LI-COR, Lincoln, NE). […]"}, "[5]": {"conditions": "in vivo"}, "PIM1": {"system": "PIM1", "conditions": "cited from earlier work"}, "AML xenografts": {"system": "AML xenografts", "conditions": "cited from earlier work"}}, "note": "pIC50: −log10 of the molar value."}
{"smiles": "Cc1cc([C@@H](C)Nc2ccccc2C(=O)O)c2nc(N3CCOCC3)cc(=O)n2c1", "note": "[AZD6482]", "values": [{"measurement": "AKT inhibition (pAKTSer473)", "setting": "pAKTSer473", "value": "confirming AKT inhibition"}, {"measurement": "spheroid invasion and cell death (LIVE/DEAD)", "setting": "[1]", "value": "inhibit spheroid invasion and cause cell death"}]}
{"smiles": "CN1CCC(CNc2ccc3ncc(-c4cccc(OC(F)(F)F)c4)n3n2)CC1", "note": "[SGI-1776]", "values": [{"measurement": "proliferation response (alamarBlue), melanoma cell lines versus fibroblasts", "setting": "[2]", "value": "[…]"}, {"measurement": "cell death / cytotoxicity (propidium iodide)", "setting": "[3]", "value": "significantly increased cell death in the melanoma cell lines compared to normal fibroblasts"}, {"measurement": "levels of downstream PIM kinase signaling effectors", "setting": "[4]", "value": "downregulation of pBADS136, pSTAT3Y705, and pAKTS473 levels were observed"}, {"measurement": "total levels of PIM1, −2, or −3", "setting": "[4]", "value": "does not dramatically reduce total levels"}, {"measurement": "p27Kip1 levels", "setting": "1205Lu tumors", "value": "elevated p27Kip1 levels"}, {"measurement": "total mouse weight / toxic effects", "setting": "[5]", "value": "minimal effects on total mouse weight"}, {"measurement": "pIC50", "setting": "PIM1", "value": "[…]"}, {"measurement": "tumor regression", "setting": "AML xenografts", "value": "concentration-dependent tumor regressions"}, {"measurement": "spheroid invasion and cell death (LIVE/DEAD)", "setting": "[1]", "value": "inhibit spheroid invasion and cause cell death"}]}
